Patent publication US4892875A, “Substituted heterocyclylalkyl esters of 1,4-dihydropyridine-3,5-dicarboxylic acids” (Takeda Chemical Industries, Ltd., priority 1982, dated 1990)

System: spontaneously hypertensive rats
Assay: Antihypertensive action (systolic blood pressure, caudal artery) in male spontaneously hypertensive rats
Assay type: in vivo, rat
Conditions: 10 mg/kg oral; for Change in blood pressure 1 hr. after treatment / Change in blood pressure 5 hrs. after treatment: after minus before medication, * P < 0.05 vs control; for Duration of antihypertensive effect: measured 1, 5, 8 and 24 hours after administration
Procedure: Male spontaneously hypertensive rats aged 10 to 11 weeks were used (in groups of 3 to 6 individuals). […] Each test compound was suspended in a 5% solution of gum arabic and orally administered. The dosage was 10 mg/kg for all compounds. Animals in a control group was given the above solution of gum arabic only.

Row | Compound | Change in blood pressure 1 hr. after treatment | Change in blood pressure 5 hrs. after treatment | Duration of antihypertensive effect
1 | COC(=O)C1=C(C)NC(C)=C(C(=O)OCCCN2CCN(C(c3ccccc3)c3ccccc3)CC2)C1c1cccc(Cl)c1 (stereo not drawn) [Example 38, 3-(4-benzhydryl-1-piperazinyl)propyl methyl 4-(3-chlorophenyl)-2,6-dimethyl-1,4-dihydropyridine-3,5-dicarboxylate] | -50 mmHg | -42 mmHg | 8 to 24 h
2 | CCOC(=O)C1=C(C)NC(C)=C(C(=O)OCCN2CCN(C(c3ccc(C)cc3)c3ccc(C)cc3)CC2)C1c1cccc(C(F)(F)F)c1 (stereo not drawn) [Example 32, 2-[4-(4,4'-dimethylbenzhydryl)-1-piperazinyl]ethyl ethyl 2,6-dimethyl-4-(3-trifluoromethylphenyl)-1,4-dihydropyridine-3,5-dicarboxylate] | -46 mmHg | -48 mmHg | 8 to 24 h
3 | COC(=O)C1=C(C)NC(C)=C(C(=O)OCCN2CCN(C(c3ccccc3)c3ccccc3)CC2)C1c1cccc2nonc12.Cl.Cl (stereo not drawn) [Example 60, 2-(4-benzhydryl-1-piperazinyl)ethyl methyl 4-(2,1,3-benzoxadiazol-4-yl)-2,6-dimethyl-1,4-dihydropyridine-3,5-dicarboxylate dihydrochloride] | -98 mmHg | -90 mmHg | 8 to 24 h
4 | COC(=O)C1=C(C)NC(C)=C(C(=O)OCCN2CCN(C(c3ccc(C)cc3)c3ccc(C)cc3)CC2)C1c1cccc([N+](=O)[O-])c1 (stereo not drawn) [Example 9, 2-[4-(4,4'-dimethylbenzhydryl)-1-piperazinyl]ethyl methyl 2,6-dimethyl-4-(3-nitrophenyl)-1,4-dihydropyridine-3,5-dicarboxylate] | -96 mmHg | -98 mmHg | > 24 h
5 | CCOC(=O)C1=C(C)NC(C)=C(C(=O)OCCN2CCN(C(c3ccc(C)cc3)c3ccc(C)cc3)CC2)C1c1cccc(Cl)c1Cl (stereo not drawn) [Example 24, 2-[4-(4,4'-dimethylbenzhydryl)-1-piperazinyl]ethyl ethyl 4-(2,3-dichlorophenyl)-2,6-dimethyl-1,4-dihydropyridine-3,5-dicarboxylate] | -49 mmHg | -30 mmHg | ca. 8 hrs.
6 | COC(=O)C1=C(C)NC(C)=C(C(=O)OCCN2CCN(c3cccc(Cl)c3Cl)CC2)C1c1cccc([N+](=O)[O-])c1 (stereo not drawn) [Example 58, 2-[4-(2,3-dichlorophenyl)-1-piperazinyl]ethyl methyl 2,6-dimethyl-4-(3-nitrophenyl)-1,4-dihydropyridine-3,5-dicarboxylate] | -27 mmHg | -39 mmHg | 8 to 24 h
7 | CCOC(=O)C1=C(C)NC(C)=C(C(=O)OCCN2CCN(C(c3ccccc3)c3ccccc3)CC2)C1c1cccc(Cl)c1 (stereo not drawn) [Example 28, 2-(4-benzhydryl-1-piperazinyl)ethyl ethyl 4-(3-chlorophenyl)-2,6-dimethyl-1,4-dihydropyridine-3,5-dicarboxylate] | -93 mmHg | -75 mmHg | 8 to 24 h
8 | COC(=O)C1=C(C)NC(C)=C(C(=O)OCCN2CCN(c3ccccc3C)CC2)C1c1cccc(Cl)c1 (stereo not drawn) [Example 52, methyl 2-[4-(2-methylphenyl)-1-piperazinyl]ethyl 4-(3-chlorophenyl)-2,6-dimethyl-1,4-dihydropyridine-3,5-dicarboxylate] | -54 mmHg | -14 mmHg | ca. 8 hrs.
9 | COC(=O)C1=C(C)NC(C)=C(C(=O)OCCN2CCN(c3ccc(Cl)cc3)CC2)C1c1cccc([N+](=O)[O-])c1 (stereo not drawn) [Example 45, 2-[4-(4-chlorophenyl)-1-piperazinyl]ethyl methyl 2,6-dimethyl-4-(3-nitrophenyl)-1,4-dihydropyridine-3,5-dicarboxylate] | -57 mmHg | -42 mmHg | 8 to 24 h
10 | CCOC(=O)C1=C(C)NC(C)=C(C(=O)OCCN2CCN(C(c3ccccc3)c3ccccc3)CC2)C1c1cccc([N+](=O)[O-])c1 (stereo not drawn) [Example 2, 2-(4-benzhydryl-1-piperazinyl)ethyl ethyl 2,6-dimethyl-4-(3-nitrophenyl)-1,4-dihydropyridine-3,5-dicarboxylate] | -99 mmHg | -101 mmHg | 8 to 24 h
11 | COC(=O)C1=C(C)NC(C)=C(C(=O)OCCN2CCN(c3ccccc3C)CC2)C1c1cccc([N+](=O)[O-])c1 (stereo not drawn) [Example 51, methyl 2-[4-(2-methylphenyl)-1-piperazinyl]ethyl 2,6-dimethyl-4-(3-nitrophenyl)-1,4-dihydropyridine-3,5-dicarboxylate] | -69 mmHg | -54 mmHg | 8 to 24 h
12 | COC(=O)C1=C(C)NC(C)=C(C(=O)OCCN2CCN(c3ccc(Cl)cc3)CC2)C1c1cccc(Cl)c1 (stereo not drawn) [Example 50, 2-[4-(4-chlorophenyl)-1-piperazinyl]ethyl methyl 4-(3-chlorophenyl)-2,6-dimethyl-1,4-dihydropyridine-3,5-dicarboxylate] | -58 mmHg | -37 mmHg | 8 to 24 h
13 | COC(=O)C1=C(C)NC(C)=C(C(=O)OCCN2CCN(c3cccc(Cl)c3)CC2)C1c1cccc([N+](=O)[O-])c1 (stereo not drawn) [Example 17, 2-[4-(3-chlorophenyl)-1-piperazinyl]ethyl methyl 2,6-dimethyl-4-(3-nitrophenyl)-1,4-dihydropyridine-3,5-dicarboxylate] | -77 mmHg | -46 mmHg | 8 to 24 h
14 | CCOC(=O)C1=C(C)NC(C)=C(C(=O)OCCN2CCN(C(c3ccc(C)cc3)c3ccc(C)cc3)CC2)C1c1cccc(Cl)c1 (stereo not drawn) [Example 33, 2-[4-(4,4'-dimethylbenzhydryl)-1-piperazinyl]ethyl ethyl 4-(3-chlorophenyl)-2,6-dimethyl-1,4-dihydropyridine-3,5-dicarboxylate] | -51 mmHg | -60 mmHg | 8 to 24 h
15 | COC(=O)C1=C(C)NC(C)=C(C(=O)OCCN2CCN(c3ccccc3Cl)CC2)C1c1cccc([N+](=O)[O-])c1 (stereo not drawn) [Example 44, 2-[4-(2-chlorophenyl)-1-piperazinyl]ethyl methyl 2,6-dimethyl-4-(3-nitrophenyl)-1,4-dihydropyridine-3,5-dicarboxylate] | -44 mmHg | -22 mmHg | 8 to 24 h
16 | 2-[4-(4-fluorophenyl)-1-piperazinyl]ethyl methyl 4-(3-chlorophenyl)-2,6-dimethyl-1,4-dihydropyridine-3,5-dicarboxylate [Example 42] | -25 mmHg | -35 mmHg | 8 to 24 h
17 | COC(=O)C1=C(C)NC(C)=C(C(=O)OCCN2CCN(c3ccccc3)CC2)C1c1cccc([N+](=O)[O-])c1 (stereo not drawn) [Example 53, methyl 2-(4-phenyl-1-piperazinyl)ethyl 2,6-dimethyl-4-(3-nitrophenyl)-1,4-dihydropyridine-3,5-dicarboxylate] | -60 mmHg | -34 mmHg | ca. 8 hrs.
18 | COC(=O)C1=C(C)NC(C)=C(C(=O)OCCN2CCN(c3cccc(Cl)c3)CC2)C1c1cccc(Cl)c1Cl (stereo not drawn) [Example 46] | -44 mmHg | -43 mmHg | 8 to 24 h
19 | CCOC(=O)C1=C(C)NC(C)=C(C(=O)OCCN2CCN(c3ccc(F)cc3)CC2)C1c1cccc([N+](=O)[O-])c1 (stereo not drawn) [Example 41, ethyl 2-[4-(4-fluorophenyl)-1-piperazinyl]ethyl 2,6-dimethyl-4-(3-nitrophenyl)-1,4-dihydropyridine-3,5-dicarboxylate] | -55 mmHg | -67 mmHg | ca. 24 hrs.
20 | COC(=O)C1=C(C)NC(C)=C(C(=O)OCCN2CCN(C(c3ccc(Cl)cc3)c3ccc(Cl)cc3)CC2)C1c1cccc([N+](=O)[O-])c1 (stereo not drawn) [Example 12, 2-[4-(4,4'-dichlorobenzhydryl)-1-piperazinyl]ethyl methyl 2,6-dimethyl-4-(3-nitrophenyl)-1,4-dihydropyridine-3,5-dicarboxylate] | -85 mmHg | -87 mmHg | > 24 h
21 | COC(=O)C1=C(C)NC(C)=C(C(=O)OCCN2CCN(c3ccc(F)cc3)CC2)C1c1cccc(Cl)c1Cl (stereo not drawn) [Example 43, 2-[4-(4-fluorophenyl)-1-piperazinyl]ethyl methyl 4-(2,3-dichlorophenyl)-2,6-dimethyl-1,4-dihydropyridine-3,5-dicarboxylate] | -54 mmHg | -44 mmHg | 8 to 24 h
22 | COC(=O)C1=C(C)NC(C)=C(C(=O)OCCN2CCN(C(c3ccc(F)cc3)c3ccc(F)cc3)CC2)C1c1cccc(Cl)c1Cl (stereo not drawn) [Example 13, 2-[4-(4,4'-difluorobenzhydryl)-1-piperazinyl]ethyl methyl 4-(2,3-dichlorophenyl)-2,6-dimethyl-1,4-dihydropyridine-3,5-dicarboxylate] | -34 mmHg | -31 mmHg | 8 to 24 h
